ChEMBL document CHEMBL1201862, “PubChem BioAssay data set” (2004)
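Following 48 hours of exposure in 96-well plates, responses at five concentrations were used to interpolate endpoints linearly. At the GI50, growth is halved.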 Activity calls are given as the source filed them. Rule as the data show it: active = GI50 up to about 1.1 µM and inactive = higher.

Tests used:
Assay in all cases: NCI-60 cell line screen, 48 h
MCF7 = test system: MCF7
NCI-H460 = test system: NCI-H460
RPMI-8226 = test system: RPMI-8226
LOX IMVI = test system: LOX IMVI
SK-OV-3 = test system: SK-OV-3
SN12C = test system: SN12C
IGROV-1 = test system: IGROV-1
XF498 = test system: XF498
KM-20L2 = test system: KM-20L2
DMS-114 = test system: DMS-114
A498 = test system: A498
HCC 2998 = test system: HCC 2998
SW-620 = test system: SW-620
SNB-78 = test system: SNB-78
M19-MEL = test system: M19-MEL
SNB-75 = test system: SNB-75
SK-MEL-2 = test system: SK-MEL-2
HL-60 = test system: HL-60
PC-3 = test system: PC-3
MDA-MB-231 = test system: MDA-MB-231

SMILES	GI50 (MCF7)	GI50 (NCI-H460)	GI50 (RPMI-8226)	GI50 (LOX IMVI)	GI50 (SK-OV-3)	GI50 (SN12C)	GI50 (IGROV-1)	GI50 (XF498)	GI50 (KM-20L2)	GI50 (DMS-114)	GI50 (A498)	GI50 (HCC 2998)	GI50 (SW-620)	GI50 (SNB-78)	GI50 (M19-MEL)	GI50 (SNB-75)	GI50 (SK-MEL-2)	GI50 (HL-60)	GI50 (PC-3)	GI50 (MDA-MB-231)
COC(=O)C(C/C=C(\C)c1ccc(Cl)cc1)C(C)=O (stereo unspecified)	37.7 µM (inactive)	> 100 µM (inactive)	24.2 µM (inactive)	14.9 µM (inactive)	> 100 µM (inactive)	56 µM (inactive)	53.6 µM (inactive)	> 65.8 µM (inactive)	35.9 µM (inactive)	19.9 µM (inactive)	34.4 µM (inactive)	75.9 µM (inactive)	50.9 µM (inactive)	> 56.8 µM (inactive)	32.7 µM (inactive)	29.2 µM (inactive)	5.53 µM (inactive)	14.6 µM (inactive)		
COc1ccc(C(=O)/C=C/c2ccc(OCC(=O)N3CCN(c4ccccc4)CC3)cc2)cc1	78.2 µM (inactive)	82.4 µM (inactive)	> 39.8 µM (inactive)	> 73.6 µM (inactive)	29.1 µM (inactive)	> 65.9 µM (inactive)	34 µM (inactive)	35.9 µM (inactive)	> 100 µM (inactive)	> 90.6 µM (inactive)	55.1 µM (inactive)	> 100 µM (inactive)	72.4 µM (inactive)	15.1 µM (inactive)	> 100 µM (inactive)	23.7 µM (inactive)	45.4 µM (inactive)	> 35.6 µM (inactive)	45.5 µM (inactive)	> 27.3 µM (inactive)
Cc1csc(/N=C(/NCCN2CCOCC2)Nc2nc(C)cs2)n1	> 84.5 µM (inactive)	> 100 µM (inactive)	> 100 µM (inactive)	> 100 µM (inactive)	> 100 µM (inactive)	> 100 µM (inactive)	> 100 µM (inactive)	> 100 µM (inactive)	> 100 µM (inactive)	> 100 µM (inactive)	> 57.9 µM (inactive)	> 100 µM (inactive)	> 100 µM (inactive)	> 100 µM (inactive)	> 100 µM (inactive)	> 63.2 µM (inactive)	> 100 µM (inactive)	60.7 µM (inactive)		
C/C=C/C1=CC(=O)C(O)C1O (stereo unspecified)	30.8 µM (inactive)	19.7 µM (inactive)	22.1 µM (inactive)	16.5 µM (inactive)	40.7 µM (inactive)	23.1 µM (inactive)	35.6 µM (inactive)	18.5 µM (inactive)	28.2 µM (inactive)	22 µM (inactive)	8.28 µM (inactive)	27.5 µM (inactive)	27.2 µM (inactive)	57.8 µM (inactive)	26.7 µM (inactive)	23.6 µM (inactive)	36.5 µM (inactive)	15.1 µM (inactive)		
C=CC(C)C1(CCCOCc2ccccc2)C(=S)N2CCC3(CC24CCCC14)OCCO3 (stereo unspecified)		26.3 µM (inactive)	2.72 µM (inactive)	54.3 µM (inactive)	> 100 µM (inactive)	91.6 µM (inactive)	> 100 µM (inactive)	3.06 µM (inactive)	62.2 µM (inactive)	4.97 µM (inactive)	5.01 µM (inactive)	56.1 µM (inactive)	31.6 µM (inactive)	9.48 µM (inactive)	25.6 µM (inactive)	0.0506 µM (active)	12.2 µM (inactive)	1.9 µM (inactive)		
